# Assay results: patent US4676822A, “Fluid fertilizers containing thiophosphoryl triamide” (Tennessee Valley Authority, priority 1986, dated 1987)
# Values joined by “and” are separate entries in the source; they are usually repeats but may differ in a detail not shown here. Identical values can stand only once.
# How the values were obtained:
# [1] = Stability of TPTA in solid mixtures with urea (HPLC); assay type: physicochemical; details: solid 90% urea-10% TPTA, P(H2O) 12.73 mm Hg
# Experimental: Solid samples (0.25 g) of urea-TPTA mixtures (90 weight percent urea-10 weight precent TPTA) were weighed into a 10-mL beaker, carefully spread into an even layer in the bottom of the beaker, and heated in a forced draft oven at temperatures of 42°, 50°, and 60° C. Samples were contained in desiccators inside the oven, each desiccator conataining a sodium hydroxide solution to yield a partial pressure of water of 12.73 mm Hg at the temperature employed. After heating, the samples were analyzed by High Performance Liquid Chromatography (HPLC) to determine the percent of the original TPTA remaining.
# The calculated decomposition rate for 25° C., which was determined from an Arrhenius plot of the 42°, 50°, and 60° C. data are also illustrated in FIG. 2, supra. From a perusal of FIG. 2 it is clearly evident that the shelf life of urea-TPTA mixtures is of extremely short duration.
# [2] = Stability of TPTA in 40 wt % urea solution (HPLC); assay type: physicochemical; details: 25° C.; for % original TPTA remaining: 40 wt % urea solution
# Experimental: A 40 weight percent urea solution (initial pH=8.5) was prepared by dissolving 80 g of urea in 120 g of water. A sample containing 1 weight percent TPTA was prepared by dissolving 1 g of TPTA in 99 g of the 40 weight percent urea solution. The sample was maintained at room temperature (25° C.) and analyzed periodically for TPTA by HPLC. The results of this kinetic study are given in Table IV infra and as noted supra plotted in FIG. 3 along with the first-order rate equation (solid line FIG. 3) which was determined by linear regression.
# [3] = Stability of TPTA in UAN (36-0-0) at 25° C. (HPLC); assay type: physicochemical; details: for % original TPTA remaining: UAN (36-0-0)
# Experimental: A sample containing 1 weight percent TPTA was prepared by dissolving 1 g of TPTA in 99 g of 36-0-0 having the composition given in Table I, supra, and an initial pH of 7.4. The sample was maintained at room temperature (25° C.) and analyzed periodically for TPTA by HPLC.
# The results of this kinetic study are given in Table V supra, and as noted supra, plotted in FIG. 4 along with the first-order rate equation (solid line in FIG. 4) which was determined by linear regression.
# urease = details: prior art; cited from earlier work
# [4] = compared with PPDA; cited from earlier work
# [5] = 25° C., water partial pressure 12.73 mm of Hg; cited from earlier work
smiles,measurement,setting,value
"NP(N)(N)=S [TPTA, thiophosphoryl triamide]",% of original TPTA remaining,"[1]; 42° C., heating time 0.00 hr",100.00%
same,% of original TPTA remaining,"[1]; 42° C., heating time 2.00 hr",94.78%
same,% of original TPTA remaining,"[1]; 42° C., heating time 4.00 hr",83.48%
same,% of original TPTA remaining,"[1]; 42° C., heating time 5.00 hr",79.80%
same,% of original TPTA remaining,"[1]; 42° C., heating time 7.00 hr",60.03%
same,% of original TPTA remaining,"[1]; 42° C., heating time 9.0 hr",53.44%
same,% of original TPTA remaining,"[1]; 42° C., heating time 9.75 hr",42.06%
same,% of original TPTA remaining,"[1]; 42° C., heating time 14.25 hr",30.69%
same,% of original TPTA remaining,"[1]; 42° C., heating time 16.00 hr",8.69%
same,% of original TPTA remaining,"[1]; 42° C., heating time 18.00 hr",5.11%
same,% of original TPTA remaining,"[1]; 50° C., heating time 0.00 hr",100.00%
same,% of original TPTA remaining,"[1]; 50° C., heating time 1.01 hr",97.17%
same,% of original TPTA remaining,"[1]; 50° C., heating time 2.00 hr",93.80%
same,% of original TPTA remaining,"[1]; 50° C., heating time 3.00 hr",85.92%
same,% of original TPTA remaining,"[1]; 50° C., heating time 4.00 hr",71.31%
same,% of original TPTA remaining,"[1]; 50° C., heating time 5.00 hr",53.40%
same,% of original TPTA remaining,"[1]; 50° C., heating time 6.00 hr",34.26%
same,% of original TPTA remaining,"[1]; 50° C., heating time 7.00 hr",23.40%
same,% of original TPTA remaining,"[1]; 50° C., heating time 8.00 hr",10.56%
same,% of original TPTA remaining,"[1]; 60° C., heating time 0.00 hr",100.00%
same,% of original TPTA remaining,"[1]; 60° C., heating time 1.00 hr",94.07%
same,% of original TPTA remaining,"[1]; 60° C., heating time 2.00 hr",71.98%
same,% of original TPTA remaining,"[1]; 60° C., heating time 3.00 hr",32.26%
same,% of original TPTA remaining,"[1]; 60° C., heating time 4.00 hr",3.46%
same,% of original TPTA remaining,"[1]; 60° C., heating time 5.00 hr",0.00%
same,% of original TPTA remaining,"[1]; 60° C., heating time 6.00 hr",0.00%
same,reaction half-life in 40 weight percent urea solution,"[2]; 1 wt % TPTA, initial pH 8.5, first-order",168 days
same,% original TPTA remaining,[2]; time 0.00 days,100.00%
same,% original TPTA remaining,[2]; time 9.04 days,94.96%
same,% original TPTA remaining,[2]; time 9.25 days,94.83%
same,% original TPTA remaining,[2]; time 10.21 days,93.97%
same,% original TPTA remaining,[2]; time 13.05 days,94.25%
same,% original TPTA remaining,[2]; time 14.99 days,89.47%
same,% original TPTA remaining,[2]; time 17.22 days,88.78%
same,% original TPTA remaining,[2]; time 20.27 days,91.44%
same,% original TPTA remaining,[2]; time 22.12 days,87.44%
same,% original TPTA remaining,[2]; time 24.07 days,88.80%
same,% original TPTA remaining,[2]; time 29.19 days,87.81%
same,% original TPTA remaining,[2]; time 31.23 days,87.90%
same,% original TPTA remaining,[2]; time 34.23 days,88.52%
same,% original TPTA remaining,[2]; time 36.03 days,86.26%
same,% original TPTA remaining,[2]; time 38.19 days,91.36%
same,% original TPTA remaining,[2]; time 41.19 days,88.11%
same,% original TPTA remaining,[2]; time 43.10 days,78.25%
same,% original TPTA remaining,[2]; time 45.07 days,79.73%
same,% original TPTA remaining,[2]; time 48.04 days,76.59%
same,% original TPTA remaining,[2]; time 50.20 days,78.68%
same,% original TPTA remaining,"[2]; time 52.00 days, 74880 min",76.66% and 76.56%
same,% original TPTA remaining,[2]; time 56.04 days,76.52%
same,% original TPTA remaining,[2]; time 62.02 days,76.02%
same,% original TPTA remaining,"[2]; time 76.14 days, 109642 min",76.78%
same,% original TPTA remaining,"[2]; time 83.11 days, 119678 min",70.05%
same,% original TPTA remaining,"[2]; time 97.06 days, 139766 min",65.19%
same,reaction half-life in the 36-0-0 solution,"[3]; 1 wt % TPTA, initial pH 7.4, first-order",43 days
same,% original TPTA remaining,[3]; time 0.00 days,100.00%
same,% original TPTA remaining,[3]; time 1.22 days,100.00%
same,% original TPTA remaining,[3]; time 5.22 days,93.60%
same,% original TPTA remaining,[3]; time 7.13 days,97.15%
same,% original TPTA remaining,[3]; time 9.09 days,81.12%
same,% original TPTA remaining,[3]; time 12.07 days,82.21%
same,% original TPTA remaining,[3]; time 14.22 days,84.30%
same,% original TPTA remaining,"[3]; time 16.01 days, 23054.4 min",79.90% and 73.86%
same,% original TPTA remaining,[3]; time 20.05 days,70.87%
same,% original TPTA remaining,[3]; time 26.05 days,72.43%
same,% original TPTA remaining,[3]; time 40.17 days,43.14%
same,% original TPTA remaining,[3]; time 47.14 days,42.94%
same,% original TPTA remaining,[3]; time 61.08 days,32.25%
same,% original TPTA remaining,[3]; time 64.99 days,41.41%
same,% original TPTA remaining,[3]; time 71.70 days,31.14%
same,% original TPTA remaining,"[3]; time 82.71 days, 119102 min",29.60%
same,% original TPTA remaining,"[3]; time 90.71 days, 130622 min",20.67%
same,% original TPTA remaining,[3]; time 96.75 days,25.07%
same,% original TPTA remaining,[3]; time 103.71 days,21.73%
same,% original TPTA remaining,[3]; time 111.71 days,13.09%
same,urease inhibition (in words),urease,comparable and in some cases more effective than PPDA
same,stability in urea melt,[4],substantially more stable in urea melt than PPDA
same,reaction half-life in solid mixtures with urea,[5],1.6 days
